According to US6028102A, “Anticonvulsant drugs and pharmaceutical compositions thereof” (priority 1998, dated 2000):
“Also recorded” adds a separate entry of the source.

Legend:
[1] = maximal electroshock (MES) test, ip to mice; type: in vivo; details: for ED50: Mus musculus
Experimental: (§1) Screening of Anticonvulsant Activity
(§2) Compounds I-XI were screened in carworth farm #1 mice (ip--in a volume of 0.01 mL/g of body weight) and sprague-Dawley rats (po--in a volume of 0.004 mL/g of body weight) for their anticonvulsant activity and neurotoxicity by the NIH epilepsy Branch [Porter et al, 1984]. The screening procedure involved the following:
(§3) 1) the maximal electroshock (MES) test, which measures seizure spread; 2) the subcutaneous pentylenetetrazol test (sc Met test) which measures seizure threshold; and 3) the rotored ataxia test which assesses neurotoxicity.
Anticonvulsant activity and neurotoxicity of N-acetyl, N'-
benzylglycinamide (VII) and N-benzyloxycarbonylglycinamide
(IX) following ip administration to mice in comparison to
phthaloylglycinamide and N-valproylglycinamide^a.
MES Maximal electroshock.
(§4) ED50 - Effective dose in 50% of the test animals.

[2] = subcutaneous pentylenetetrazol test (sc Met), ip to mice; type: in vivo
Experimental: as §1, §2, §3, §4

[3] = rotored ataxia test (neurotoxicity), ip to mice; type: in vivo; details: for TD50: mouse, in vivo, ip
Experimental: as §1, §2, §3
TD50 - Neurotoxic dose in 50% of the test animals.

[4] = Screening of anticonvulsant activity; type: in vivo, mice; details: for anticonvulsant activity in words: overall finding of the study
Experimental: as §1, §2, §3
Applicants therefore decided to derivatize glycinamide and the above dipeptides by synthesizing their N-acetyl and N'-benzyl derivatives (compounds IV-VIII). […] Therefore, this compound was further analyzed quantitatively and its ED50 data and protective indices in comparison to phthaloyl glycinamide and valproyl glycinamide--TV 1901 [17] are presented in Table 2. As a consequence of their anticonvulsant activity, the pharmacokinetics of compounds VII and IX were investigated following iv administration (400 mg) to six dogs, and the mean plasma levels of compounds VII and IX are presented in FIGS. 1 and 2, respectively.

[5] = Pharmacokinetic analysis following iv administration to dogs; type: in vivo; details: for clearance: CL
Experimental: The experiments were carried out on six male dogs (mongrels), ranging in weight between 18 and 22 kg. In a randomized cross over design, each dog was injected intravenously (in 1.5 mL of DMSO) with a dose of 400 mg of N-acetyl,N'-benzylglycinamide (VII), 404 mg (on dose equivalent to 400 mg of compound VII) of Z-glycinamide (IX) and 406 mg of Z-glycine (VIII). Urine was collected systematically for 12 hours after dosing, by means of an indwelling catheter.
Venous blood samples (6 mL) were collected via an indwelling catheter (from the cephalic vein) at specified intervals following injection (0, 5, 10, 20, 30, 45 minutes and 1, 1.5, 2, 2.5, 3, 4, 5, 6, 7, 8, 10 and 12 hours respectively). The plasma was then immediately separated by centrifugation at 3000 g for 15 minutes and stored at -20° C. Before each assay, the plasma was allowed to reach room temperature, vortexed, centrifuged and the residual clot removed.
Urine samples were collected via a urine catheter at specified intervals following injection (0, 1, 2, 3, 4, 5, 6, 7, 8, 9, 10 and 12 hours respectively), the samples volume were measured and the urine samples were stored at -20° C. Plasma and urine levels of compounds VII, VIII and IX were then assayed by a HPLC assay described herein below.
HPLC Assay for Monitoring N-acetyl,N'-benzylglycinamide (VII) and N-benzyloxycarbonylglycinamide (IX) in Dog Plasma and Urine
Plasma samples are allowed to reach room temperature, vortexed and centrifuged. The plasma was then assayed as follows:
To 0.5 mL of plasma, 10 μg of an internal standard (N-benzyl-oxycarbonylglycinamide (IX)) and 4 mL of tert-butylmethylether were added. The mixture was vigorously vortexed for 30 seconds, centrifuged for 10 minutes at 3000 g, the organic phase was separated and evaporated to dryness (using a vortex evaporator). To the residue, 80 μl of methanol were added, the mixture was vortexed and 30 μl were injected into the HPLC (Schimadzu SCL-10A with a UV-visible detector model SPD-10A).
Urine samples are allowed to reach room temperature, vortexed and centrifuged. The urine was then assayed as follows:
To 0.25 mL of urine, 10 μg of internal standard (N-benzyl-oxycarbonylglycinamide (IX)), 100 μl of hydrochloric acid solution (1 N) and 4 mL of tert-butylmethylether were added. The mixture was vigorously vortexed for 30 seconds and centrifuged for 10 minutes at 3000 g, the organic phase was separated and transferred to another test tube containing 0.5 mL of sodium hydroxide solution (1N), the mixture was vigorously vortexed for 30 seconds, centrifuged for 10 minutes at 3000 g, the organic phase was separated and evaporated to dryness (using a vortex evaporator). To the residue, 80 μl of methanol were added, the mixture was vortexed and 30 μl were injected into the HPLC.
HPLC conditions: HPLC column; Hypersil ODS (C-18) 5μ, 4.6×150 mm; Wavelength: 258 nm; Mobile phase: 60% water, 40% methanol and 0.01% trifluoroacetic acid.
The same assay was used for monitoring N-benzyloxycarbonyl-glycinamide (IX) in dog plasma and dog urine using N-acetyl,N'-benzylglycinamide as an internal standard.
HPLC Assay for Monitoring Z-glycine (VIII) in Dog Plasma and Urine
To 0.5 mL of plasma, 10 μg of internal standard (Z-GABA), 100 μl of hydrochloric acid solution (1N) and 5 mL of tert-butylmethylether were added. The mixture was vigorously vortexed for 30 seconds, centrifuged for 10 minutes at 3000 g, the organic phase was separated and evaporated to dryness (using a vortex evaporator). To the residue, 100 μl of mobile phase were added, the mixture was vortexed and 30 μl were injected to the HPLC.
Urine samples was allowed to reach room temperature, vortexed and centrifuged. The urine was then assayed as follows:
To 0.1 mL of urine, 30 μg of internal standard (Z-GABA) and 5 mL of tert-butylmethylether were added. The mixture was vigorously vortexed for 30 seconds, centrifuged for 10 minutes at 3000 g, the organic phase was separated off. […]

[6] = Blood stability study in dog blood; type: in vitro ADME
Experimental: Blood samples (4 mL) were then collected at the following times: 0, 1, 2, 3, 4, 5 and 6 hours. Plasma was immediately separated and the compounds concentrations in the plasma assayed by HPLC.

[7] = Partitioning study, blood-plasma concentration ratio; type: in vitro ADME; details: dog blood, 25° C., 5-40 mg/L
Experimental: The blood-plasma concentration ratio of compounds VII and IX (partitioning study) was carried out at room temperature (25° C.) by spiking known amounts of the compound in six samples of fresh blood taken from a dog prior to drug administration. N-acetyl, N'-benzylglycinamide and Z-glycinamide concentrations were 5, 10, 15, 20, 30 and 40 mg/L. Each blood sample was centrifuged immediately after spiking and the separation of the plasma was carried out according to the procedure described hereinabove. Plasma levels of the two compounds VII and IX were determined by HPLC.

[8] = Blood-brain-barrier crossing after iv injection to rats; type: in vivo; details: 25 mg
Experimental: (§5) In two separate experiments cold (unlabeled) Z-glycinamdie and Z-glucine were injected intravenously to male rats. For the experiments, the two compounds were dissolved in 0.2 mL of DMSO and were injected at a dose of 25 mg. Blood samples (8 mL each) were collected from the ascending vena cava of an individual rat at 5, 10, 20, 30, 45, 60, 90, 120, 150, 180, 240, 300, 360 and 480 minutes after administering the drug dose. Three rats were sacrificed for each of the aforementioned time measurements and the plasma or tissue obtained from each rat for each time point was averaged. Plasma was immediately separated by centrifugation at 3000 g for 15 minutes and stored at -20° C. until analyzed. Brain and liver were quickly removed at the same time intervals under light ether anesthesia, the excised tissues were immersed in liquid nitrogen for a few minutes and stored at -70° C. until analyzed. Four rats were kept in metabolic cages and the cumulative urine was collected from each rat for 480 minutes after dosing.

[9] = Metabolism and urinary excretion in rats; type: in vivo; details: iv
Experimental: as §5
In rats […] of the N-benzyloxycarbonylglycinamide (IX) dose administered is metabolized to Z-glycine and excreted in the urine with the remaining 15% excreted as N-benzyloxycarbonylglycinamide (IX).

[10] = Stability in dog plasma; type: in vitro ADME; details: 37° C. and 20° C.
[11] = mice; Kohn et al 1988, 1990, 1991; Conley and Kohn, 1987; cited from earlier work
[12] = 6 hours at physiological conditions (37° C.)

SMILES | PI, MES (Protective index, ratio of TD50 to ED50) [1] | ED50 [1] [mg/kg] | TD50 [3] [mg/kg] | anticonvulsant activity in words [4] | CL ([5]; dog, in vivo) [L/h] | half-life ([5]; dog, in vivo) [h] | hepatic extraction ratio ([5]; dog, in vivo) | clearance ([5]; dog, in vivo) [mL/min] | MRT ([5]; dog, in vivo, MRT) [h] | Vd ([5]; dog, in vivo, VSS) [L] | Vd ([5]; dog, in vivo, Vss) [L] | stability in dog blood [6, 12] | further results
NC(=O)CNC(=O)OCc1ccccc1 [IX, N-benzyloxycarbonylglycinamide] | 5.0 | 46 | 230 | showed anticonvulsant activity in mice; also recorded: active | 10.7 ± 4.3 | 2.3 ± 1.3 | 0.02 | 183 | 3.3 ± 1.8 | 33 ± 10 | 33 ± 10 | stable | PI, sc Met (Protective index, ratio of TD50 to ED50) [2]: 2.4; ED50 ([2]; Mus musculus): 95 mg/kg; metabolised ([5]; dog, in vivo): 80 ± 14%; pharmacokinetics and elimination in words ([5]; dogs): mainly metabolized to Z-glycine; also recorded: eliminated from the body mainly by metabolism; pharmacokinetics and elimination in words ([5]; dogs, listed as Z-glycinamide): mainly metabolized to the inactive Z-glycine; plasma to blood ratio [7]: 0.95±0.05; crossing of the blood-brain-barrier [8]: crossed the blood-brain-barrier more readily than does Z-glycine; dose metabolized to Z-glycine and excreted in the urine ([9]; rat, in vivo, 480 min): 75%; site of metabolism ([9]; rats): occurs primarily in the liver
CC(=O)NCC(=O)NCc1ccccc1 [compound VII, N-Acetyl,N'-benzylglycinamide] | 2.3 | 88 | > 200 | active | 6.8 ± 0.84 | 2.1 ± 0.4 | 0.0125 | 107 | 3.3 ± 0.8 | 21 ± 4 | 20 ± 4 | unstable | neurotoxic signs ([3]; at a dose as high as 300 mg/kg): did not show neurotoxic signs; anticonvulsant activity ([4]; ip administration of 100 mg/kg to mice): showed anticonvulsant activity; MRT ([5]; dog, in vivo): 3.0 ± 0.6 h; pharmacokinetics and elimination in words ([5]; dog, in vivo): eliminated from the body mainly by metabolism; t1/2 ([5]; dog, in vivo): 2.1 ± 0.5 h; Vd ([5]; dog, in vivo, Vβ): 19 ± 6 L; stability in dog blood ([6]; 20° C.): unstable; stability in dog plasma [10]: stable; anticonvulsant activity in MES test [11]: active at a higher dose of 300 mg/kg
